Reference: US20120058972A1, “NOVEL USE” (priority 2009, published 2012)

Experiments:
[1] = system: Dextran Sulphate Sodium Induced Colitis Mouse Model; assay: Dextran sulphate sodium induced colitis mouse model, IL-6 and MIP-2 in colon tissue homogenates (ELISA); type: in vivo, C57BL/6 mice; conditions: 3.5% DSS in drinking water 5 days
Source text: Two groups (n=24 each) of adult C57BL/6 mice (Jackson Laboratories, Bar Harbour, Me., USA), conventionally raised (CR) and bacteria-depleted (BD) mice, were used to induce colitis. All animals were housed within a 12-h light/dark cycle and had access to mouse chow and water ad libitum.
At 6 weeks of age, conventionally colonised mice were housed under conventional conditions with untreated water (CR group) whilst mice in the BD group were fed an antibiotic cocktail in their drinking water for 2 weeks. Kanamycin (8 mg/ml), Gentamicin (0.7 mg/ml), Colistin (34,000 U/ml), Metronidazole (4.3 mg/ml) and Vanacomycin (0.9 mg/ml) comprised the antibiotic cocktail. Concentrations of antibiotics in the water were calculated based on the average water consumed by age group.
At 8 weeks of age, intestinal colitis was induced by feeding 3.5% DSS (Dextran Sulphate Sodium) (MP Biomedicals, Aurora, Ohio, USA) in drinking water for 5 days in all mice of both groups (CR and BD). At 10 weeks of age, half the mice of each group started receiving Bimuno (5 g/L) for 7 days. At the end of week 10, the animals were euthanized and their colons were harvested for analysis.
Murine IL-6 and MIP-2 cytokines were analysed by ELISA (Quantikine, R&D Systems, Minn., USA) on colon tissue homogenates according to manufacturer's instructions. Briefly, the proximal colons for each group were collected and homogenised with PBS homogenising buffer containing 1% Triton X-100 supplemented with a cocktail of protease inhibitors. The homogenised solutions were centrifuged at 12,000 rpm for 10 min, and the supernatants were separated into aliquots and stored at −70° C.

T84 cells = assay: Effect of B-GOS on TNF-α induced IL-8 secretion in T84 cells (ELISA); type: cell-based, human; conditions: TNF-α 10 ng/mL, vs untreated, p<0.001
Procedure: (§1) Intestinal epithelial cells were grown to confluence in 24-well plates from an initial concentration of 5×10^5 cells/mL. When the cells reached 70% confluence, they were treated in quadruplicate as follows: (i) negative control, (ii) TNF-α (10 ng/mL) positive control, (iii) B-GOS (5 g/L) and (iv) TNF-α (10 ng/mL) with B-GOS (5 g/L). A concentration of 5 g/L of oligosaccharides was used since this is the physiological concentration of oligosaccharides found in human milk. After 16 hours, supernatants were collected and stored at −20° C. for IL-8 and MIP-3α secretion to be determined later by ELISA. In following experiments, TNF-α was replaced by IL1β or flagellin.
Quantitation of IL-8. The IL-8 concentration was measured by ELISA as described previously (Claud E C, Savidge T, Walker W A 2003 Modulation of human intestinal epithelial cell IL-8 secretion by human milk factors. Pediatr Res 53:419-425). […] The reaction was stopped with 100 μL 2N H2SO4 and the absorbance was read at 490 nm. The concentration of IL-8 in the samples was calculated from the IL-8 standard curve. […]
Statistical analysis. […] Gene expression data obtained by qRT-PCR was expressed as the mean with SE. […]

NCM-460 cells [2] = assay: Effect of B-GOS on IL-8 and MIP-3α secretion in NCM-460 cells (ELISA); type: cell-based, human; conditions: TNF-α 10 ng/mL, vs untreated, p<0.001
Procedure: as §1
Quantitation of IL-8. The IL-8 concentration was measured by ELISA as described previously (Claud E C, Savidge T, Walker W A 2003 Modulation of human intestinal epithelial cell IL-8 secretion by human milk factors. Pediatr Res 53:419-425). […] The reaction was stopped with 100 μL 2N H2SO4 and the absorbance was read at 490 nm. The concentration of IL-8 in the samples was calculated from the IL-8 standard curve.
Quantitation of MIP-3α. The amount of MIP-3α secretion was measured by ELISA similar to IL-8, except that the plate was coated overnight with 100 μL 2.0 μg/mL mouse anti-human MIP-3α monoclonal antibody. […] The concentration of MIP-3α in the samples was calculated from the MIP-3α standard curve. […]

NCM-460 cells [3] = assay: Effect of B-GOS on induction of cytokine transcription (qRT-PCR of IL-8, MIP-3α, MCP-1 mRNA); type: cell-based, human; conditions: TNF-α 10 ng/mL, 18 hours, p<0.001
Procedure: Effect of B-GOS on induction of cytokine transcription. NCM-460 cells were grown to confluence in 6-well plates from an initial concentration of 5×10^5 cells/mL. When the cells reached 70% confluence, they were treated as follows in quadruplicate: (i) negative control, (ii) TNF-α or IL1β or flagellin (10 ng/mL) positive control, and (iii) TNF-α or IL1β or flagellin (10 ng/mL) with B-GOS (5 g/L). After 18 hours, total cellular RNA was isolated by Trizol-chloroform extraction. Using the SuperScript III Platinum SYBR Green One-Step qRT-PCR kit, the mRNA expression of IL-8, MIP-3α and MCP-1 was measured on a MJ Opticon 2 and standardized to mRNA expression of GAPDH.
Statistical analysis. Induction of cytokines was standardized to the positive control with error bars representing standard error (SE). Comparisons between groups were performed using a two-tailed Student's t test. Gene expression data obtained by qRT-PCR was expressed as the mean with SE. Comparisons between groups were performed using a Student's two-tailed t test after logarithmic transformation. A p value <0.05 was considered statistically significant and indicated by an asterisk (*), a p value <0.01 was indicated by two asterisks (**) and a p value <0.001 was indicated by three asterisks (***).

NF-κB p65 protein = assay: Effect of B-GOS on NF-κB translocation (immunofluorescence); type: cell-based, human; conditions: NCM-460 cells, TNF-α 10 ng/mL alone, 30 minutes
Procedure: Effect of B-GOS on NF-KB translocation. NCM-460 cells were grown to 70% confluency on cover slips and treated in duplicate for 10 or 30 minutes as follows: (i) negative control, (ii) TNF-α (10 ng/mL) positive control, and (iii) TNF-α (10 ng/mL) with B-GOS (5 g/L). The medium was removed and the cells were fixed in 4% paraformaldehyde. After permeabilization with methanol and blocking with 10% goat serum in 0.25% BSA in TBS, the cells were probed with rabbit anti-human NF-κB p65 polyclonal antibody. After washing, the cells were incubated with CyTM 3-conjugated goat anti-rabbit antibody. The cover slips were then washed and mounted on a glass slide to be visualized under the microscope (Nikon Eclipse TE2000-S).

Substance	induction of IL-6 secretion by DSS ([1]; BD mice, p<0.0001)	induction of MIP-2 secretion by DSS ([1]; BD mice, p=0.0005)	induction of IL-6 secretion by DSS ([1]; conventional mice, p<0.0001)	induction of MIP-2 secretion by DSS ([1]; conventional mice, p<0.0001)	increase of IL-8 secretion upon TNF-α stimulation (T84 cells)	increase of IL-8 secretion upon TNF-α stimulation (NCM-460 cells [2])	increase of MIP-3α secretion upon TNF-α stimulation (NCM-460 cells [2])	increase of IL-8 mRNA expression upon TNF-α stimulation (NCM-460 cells [3])	increase of MIP-3α mRNA expression upon TNF-α stimulation (NCM-460 cells [3])	nuclear translocation of NF-κB p65 upon TNF-α stimulation (NF-κB p65 protein)
Dextran Sulphate Sodium [DSS]	6.2 fold	27.2 fold	2.2 fold	8.3 fold						
TNF-α					4.9 fold	58.8 fold	25.0 fold	12.2 fold	99.4 fold	clearly translocated into the nuclei
